Reference: patent US9353067B2, “Heterocyclic compounds and uses thereof in the treatment of sexual disorders” (ATIR Holding S.A., priority 2011, dated 2016)

Columns and labels:
Adrenergic α1 receptor = test: Competitive binding, prazosin radioligand; design: species or system Wistar rat
Procedure: (§1) R-55 (which comprises a 3-hydroxyphenyl moiety) and the structurally related compounds N-108 (2-{[4-(2-ethoxyphenyl)piperazin-1-yl]methyl}quinazolin-4(3H)-one) and B-39 (7-chloro-2-((5,6-dihydro-4-(2-methoxyphenyl)pyridin-1(2H)-yl)methyl)quinazolin-4(3H)-one) were assayed for competitive binding to a variety of receptors, including D4.4 type dopamine receptor, in order to assess their specificity for D4.4 dopamine receptors.
(§2) The receptors were expressed as human recombinant proteins in CHO cells, except for adrenergic α1 and α2 receptors which were expressed in Wistar rat brain and cerebral cortex cells, respectively, and melanocortin MC4 receptor which was expressed in human recombinant HEK-293 cells. Binding was determined using the following radioligands in the presence of various concentrations of the tested compound:
0.25 nM prazosin for adrenergic α1 receptor,
(§3) The binding assays were performed in accordance with procedures described in the literature (Greengrass & Bremner, 1979; Boyajian & Leslie, 1987; Broadhurst, 1988; Lewis, 2001; Sutton, 1995; Dearry, 1990; Zhou, 1990; Grandy, 1989; Hayes, 1992; Sokoloff, 1990; Van Tol, 1991; Van Tol 1992; Sunahara, 1991; Weinshank, 1991; Schioth, 1996; Schioth 1997; Martin & Humphrey, 1994; May, 2003; Wolf & Schutz, 1997).

Dopamine D2S receptor = Dopamine D2S receptor (Homo sapiens (Human), UniProt P14416); test: Competitive binding, spiperone radioligand
Procedure: as §1, §2
(§4) 0.16 nM, 0.7 nM and 1.2 nM spiperone, respectively, for dopamine D2S, D3 and D4.4 receptors,
as §3

Dopamine D4.4 receptor = Dopamine D4.4 receptor (Homo sapiens (Human), UniProt P21917); test: Competitive binding, spiperone radioligand
Procedure: as §1, §2, §4, §3

Dopamine D3 receptor = Dopamine D3 receptor (Homo sapiens (Human), UniProt P35462); test: Competitive binding, spiperone radioligand
Procedure: as §1, §2, §4, §3

[1] = target: Serotonin 5-HT2C receptor (Homo sapiens (Human), UniProt P28335); test: Competitive binding, mesulergine radioligand
Procedure: as §1, §2
1 nM mesulergine for serotonin 5-HT2C receptor.
as §3

[2] = target: Serotonin 5-HT1A receptor (Homo sapiens (Human), UniProt P08908); test: Competitive binding, 8-OH-DPAT radioligand
Procedure: as §1, §2
1.5 nM 8-OH-DPAT for serotonin 5-HT1A receptor, and
as §3

[3] = target: Melanocortin MC4 receptor (Homo sapiens (Human), UniProt P32245); test: Competitive binding, NDP-α-MSH radioligand
Procedure: as §1, §2
0.02 nM NDP-α-MSH for melanocortin MC4 receptor,
as §3

Dopamine D5 receptor = Dopamine D5 receptor (Homo sapiens (Human), UniProt P21918); test: Competitive binding, SCH-23390 radioligand
Procedure: as §1, §2
(§5) 1.4 nM and 2 nM SCH-23390, respectively, for dopamine D1 and D5 receptors,
as §3

Dopamine D1 receptor = Dopamine D1 receptor (Homo sapiens (Human), UniProt P21728); test: Competitive binding, SCH-23390 radioligand
Procedure: as §1, §2, §5, §3

Adrenergic α2 receptor = test: Competitive binding, rauwolscine radioligand; design: species or system Wistar rat
Procedure: as §1, §2
0.7 nM rauwolscine for adrenergic α2 receptor,
as §3

CRF1 receptor = CRF1 receptor (Homo sapiens (Human), UniProt P34998); test: Competitive binding, (Tyr0)-CRF radioligand
Procedure: as §1, §2
0.05 nM)(Tyr^0)-corticotropin releasing factor (CRF) for corticotropin releasing factor CRF1 receptor,
as §3

Dopamine D4.4 receptor, sequence (P21917 whole entry): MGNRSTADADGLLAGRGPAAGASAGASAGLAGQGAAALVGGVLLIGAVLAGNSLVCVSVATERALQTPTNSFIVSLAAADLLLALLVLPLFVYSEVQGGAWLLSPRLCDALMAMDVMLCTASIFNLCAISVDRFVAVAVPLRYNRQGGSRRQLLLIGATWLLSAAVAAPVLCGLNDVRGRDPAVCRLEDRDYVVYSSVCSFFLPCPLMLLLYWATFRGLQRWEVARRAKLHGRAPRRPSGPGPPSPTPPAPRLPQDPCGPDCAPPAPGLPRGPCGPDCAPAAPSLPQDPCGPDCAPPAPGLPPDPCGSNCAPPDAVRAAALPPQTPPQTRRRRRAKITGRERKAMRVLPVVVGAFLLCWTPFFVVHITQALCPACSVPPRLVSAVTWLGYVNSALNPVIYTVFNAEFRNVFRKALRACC
Melanocortin MC4 receptor, sequence (P32245 whole entry): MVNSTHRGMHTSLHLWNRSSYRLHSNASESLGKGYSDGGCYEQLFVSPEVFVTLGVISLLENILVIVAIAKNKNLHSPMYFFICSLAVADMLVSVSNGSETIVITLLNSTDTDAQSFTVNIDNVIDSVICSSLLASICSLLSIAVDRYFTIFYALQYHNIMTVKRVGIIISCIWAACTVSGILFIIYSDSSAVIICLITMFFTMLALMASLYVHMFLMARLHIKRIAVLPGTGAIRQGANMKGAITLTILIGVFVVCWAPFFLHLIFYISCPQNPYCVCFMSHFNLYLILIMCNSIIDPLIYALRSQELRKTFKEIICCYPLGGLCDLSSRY
Dopamine D2S receptor, sequence (P14416 other isoform, or with tags, fused parts or gaps): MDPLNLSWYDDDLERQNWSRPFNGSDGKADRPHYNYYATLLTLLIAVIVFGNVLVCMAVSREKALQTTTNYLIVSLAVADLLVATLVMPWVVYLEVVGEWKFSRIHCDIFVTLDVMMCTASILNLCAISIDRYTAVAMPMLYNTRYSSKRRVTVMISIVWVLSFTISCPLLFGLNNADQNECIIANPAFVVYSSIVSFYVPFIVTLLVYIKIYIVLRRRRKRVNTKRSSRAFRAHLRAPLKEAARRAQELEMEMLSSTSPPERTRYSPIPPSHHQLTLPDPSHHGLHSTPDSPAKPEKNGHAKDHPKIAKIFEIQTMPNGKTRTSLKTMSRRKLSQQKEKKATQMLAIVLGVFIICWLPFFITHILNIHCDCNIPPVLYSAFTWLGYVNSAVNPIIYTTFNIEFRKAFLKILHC
Serotonin 5-HT1A receptor, sequence (P08908 whole entry): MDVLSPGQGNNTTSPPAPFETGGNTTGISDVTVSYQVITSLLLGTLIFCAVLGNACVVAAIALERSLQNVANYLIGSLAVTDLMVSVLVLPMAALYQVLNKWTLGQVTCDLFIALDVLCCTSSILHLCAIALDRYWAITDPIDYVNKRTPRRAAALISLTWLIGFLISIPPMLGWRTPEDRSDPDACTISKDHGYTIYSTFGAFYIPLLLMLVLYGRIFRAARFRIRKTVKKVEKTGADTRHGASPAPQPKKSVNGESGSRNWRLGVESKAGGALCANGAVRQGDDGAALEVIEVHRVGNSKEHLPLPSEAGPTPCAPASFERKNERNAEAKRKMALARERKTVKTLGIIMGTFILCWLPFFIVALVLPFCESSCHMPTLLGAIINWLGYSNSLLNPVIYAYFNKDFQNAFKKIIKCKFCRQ
Dopamine D1 receptor, sequence (P21728 whole entry): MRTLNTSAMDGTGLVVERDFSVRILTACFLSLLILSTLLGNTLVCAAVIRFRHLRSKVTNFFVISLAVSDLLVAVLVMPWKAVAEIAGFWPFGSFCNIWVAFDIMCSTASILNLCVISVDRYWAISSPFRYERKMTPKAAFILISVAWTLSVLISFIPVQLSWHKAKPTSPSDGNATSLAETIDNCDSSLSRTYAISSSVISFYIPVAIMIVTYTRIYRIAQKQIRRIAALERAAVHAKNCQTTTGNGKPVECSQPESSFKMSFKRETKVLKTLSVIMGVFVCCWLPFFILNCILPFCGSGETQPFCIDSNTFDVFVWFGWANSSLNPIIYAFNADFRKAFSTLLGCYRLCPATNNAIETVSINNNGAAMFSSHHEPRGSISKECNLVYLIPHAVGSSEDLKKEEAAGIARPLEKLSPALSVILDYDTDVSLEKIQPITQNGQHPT
Dopamine D3 receptor, sequence (P35462 whole entry): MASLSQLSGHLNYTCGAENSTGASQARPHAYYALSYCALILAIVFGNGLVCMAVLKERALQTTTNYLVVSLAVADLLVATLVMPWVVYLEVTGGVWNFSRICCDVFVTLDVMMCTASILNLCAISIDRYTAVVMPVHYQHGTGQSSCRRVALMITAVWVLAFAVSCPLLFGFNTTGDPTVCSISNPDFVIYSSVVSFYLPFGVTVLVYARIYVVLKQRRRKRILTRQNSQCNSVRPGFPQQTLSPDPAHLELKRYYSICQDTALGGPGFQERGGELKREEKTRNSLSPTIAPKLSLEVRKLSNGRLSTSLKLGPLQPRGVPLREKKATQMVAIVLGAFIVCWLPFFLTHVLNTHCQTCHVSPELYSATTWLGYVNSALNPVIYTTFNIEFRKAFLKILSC
CRF1 receptor, sequence (P34998 24-415): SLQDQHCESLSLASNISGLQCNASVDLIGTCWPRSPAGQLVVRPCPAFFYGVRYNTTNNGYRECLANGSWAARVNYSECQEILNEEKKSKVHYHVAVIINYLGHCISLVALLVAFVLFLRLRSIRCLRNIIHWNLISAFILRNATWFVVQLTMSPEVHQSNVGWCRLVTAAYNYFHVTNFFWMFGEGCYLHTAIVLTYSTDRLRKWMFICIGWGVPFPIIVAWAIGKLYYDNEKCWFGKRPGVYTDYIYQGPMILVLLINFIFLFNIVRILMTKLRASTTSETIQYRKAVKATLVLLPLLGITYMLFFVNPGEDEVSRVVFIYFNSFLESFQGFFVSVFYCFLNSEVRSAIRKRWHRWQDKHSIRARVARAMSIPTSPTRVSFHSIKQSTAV
Dopamine D5 receptor, sequence (P21918 whole entry): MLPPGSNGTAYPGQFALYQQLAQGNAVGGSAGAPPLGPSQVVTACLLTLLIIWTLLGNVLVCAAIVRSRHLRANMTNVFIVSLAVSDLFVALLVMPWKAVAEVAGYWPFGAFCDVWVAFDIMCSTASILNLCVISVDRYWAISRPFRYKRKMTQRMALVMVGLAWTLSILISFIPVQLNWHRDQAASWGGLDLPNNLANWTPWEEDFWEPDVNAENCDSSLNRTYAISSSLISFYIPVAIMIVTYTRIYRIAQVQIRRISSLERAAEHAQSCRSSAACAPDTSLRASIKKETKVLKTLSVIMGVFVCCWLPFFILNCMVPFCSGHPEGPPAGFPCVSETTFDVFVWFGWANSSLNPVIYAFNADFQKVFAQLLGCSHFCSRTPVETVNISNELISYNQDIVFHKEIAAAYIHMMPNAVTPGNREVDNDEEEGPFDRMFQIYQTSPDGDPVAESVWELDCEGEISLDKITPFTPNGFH
Serotonin 5-HT2C receptor, sequence (P28335 33-458): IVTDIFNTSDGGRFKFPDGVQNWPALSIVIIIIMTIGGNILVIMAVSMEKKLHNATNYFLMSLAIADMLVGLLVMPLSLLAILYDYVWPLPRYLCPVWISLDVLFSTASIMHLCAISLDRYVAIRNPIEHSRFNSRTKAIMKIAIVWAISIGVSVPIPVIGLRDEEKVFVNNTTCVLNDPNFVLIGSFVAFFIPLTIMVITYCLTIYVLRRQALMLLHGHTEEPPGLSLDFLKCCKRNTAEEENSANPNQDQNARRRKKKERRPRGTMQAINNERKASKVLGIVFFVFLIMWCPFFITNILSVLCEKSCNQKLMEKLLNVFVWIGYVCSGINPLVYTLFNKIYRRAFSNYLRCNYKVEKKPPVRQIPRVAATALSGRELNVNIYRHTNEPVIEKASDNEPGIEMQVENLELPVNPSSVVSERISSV

For `COc1ccccc1C1=CCN(Cc2nc3cc(Cl)ccc3c(=O)[nH]2)CC1` [Compound B-39, 7-chloro-2-((5,6-dihydro-4-(2-methoxyphenyl)pyridin-1(2H)-yl)methyl)quinazolin-4(3H)-one, reference compound], the “Competitive binding (%) at 5 μM of tested compound” value (“Competitive binding (%) at 5 μM” below) (Adrenergic α1 receptor) was 54%, the “Competitive binding (%) at 5 μM” value (Dopamine D2S receptor) was 46% and the “Competitive binding (%) at 5 μM” value (Dopamine D4.4 receptor; Dopamine D4.4 receptor, 5 μM) was 57%. The “binding affinity to the D4.4 receptor (in words)” value (Dopamine D4.4 receptor; Table 8) was “high binding affinity”, the “Competitive binding (%) at 5 μM” value (Dopamine D3 receptor) was 32% and the “Competitive binding (%) at 5 μM” value [1] was 56%. For the same compound, the “Competitive binding (%) at 5 μM” value [2] was 89%, the “Competitive binding (%) at 5 μM” value [3] was 5% and the “Competitive binding (%) at 5 μM” value (Dopamine D5 receptor) was 7%. The “Competitive binding (%) at 5 μM” value (Dopamine D1 receptor) was 4%, the “Competitive binding (%) at 5 μM” value (Adrenergic α2 receptor) was 72% and the “Competitive binding (%) at 5 μM” value (CRF1 receptor) was −5%.
